# Where a SMILES comes first, the peptide text is derived from it. The star is where a group is joined. Palmitoyl = CCCCCCCCCCCCCCCC(=O)*
# Columns and labels:
# Test in all cases: Mass spectrometry of proteins pulled down with biotinylated SA‐E (SA‐Eb) from human plasma
# Format in all cases: binding
# human plasma proteins [1] = target: T1, human plasma proteins (Homo sapiens, UniProt P02649)
# T1 construct: incubated with 50% pooled human plasma at 37 °C for 2 h; from tissue; host or cells: pooled human plasma (50%)
# T1 sequence (P02649 19-317): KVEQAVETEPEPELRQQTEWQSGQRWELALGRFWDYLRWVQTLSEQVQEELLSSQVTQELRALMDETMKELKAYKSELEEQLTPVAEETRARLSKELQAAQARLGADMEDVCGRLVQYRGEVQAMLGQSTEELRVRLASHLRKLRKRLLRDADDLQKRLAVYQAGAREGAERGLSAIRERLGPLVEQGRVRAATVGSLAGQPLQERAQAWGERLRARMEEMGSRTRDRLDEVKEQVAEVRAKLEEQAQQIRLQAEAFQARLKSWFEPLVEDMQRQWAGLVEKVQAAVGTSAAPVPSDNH
# Description: (§1) Samples were prepared for mass spectrometry analysis via a pull‐down of a biotinylated version of the SA‐E probe (SA‐Eb, 100 µM) incubated with 50% pooled human plasma at 37 °C for 2 h. Before incubation with the SA‐Eb‐plasma mixture, magnetic streptavidin‐coated beads (Dynabeads MyOne Streptavidin T1, Invitrogen, 65601) were washed with PBS (10 mM, pH 7.4) then blocked with 1% casein equal to the total initial volume of beads for 15 min at room temperature. After blocking, beads were washed again with PBS. Beads were then combined with SA‐Eb‐plasma solution, 25 µL beads to 200 µL mixture. This mixture was then incubated at room temperature for 30 min. After incubation, the remaining solution was removed, and the beads were washed five times with PBS. Bound SA‐Eb was eluted from beads in 30 µL 0.5% Triton X‐100 solution. Magnetic beads were then removed, and the elution was collected for analysis. For plasma control, the incubation with SA‐Eb step was skipped, and 50% plasma in PBS was incubated with beads and washed and eluted using the same method as the SA‐Eb‐plasma solution. The elution solutions were then analyzed by the Proteomics Shared Resource facility at Oregon Health & Science University (See Supporting Information for details).
# (§2) Sample Preparation. Eluted plasma samples were dried down and stored at -80°C. Samples were thawed at room temperature for 10 min, and 75 µL of SDS protein extraction buffer (5% SDS, 50 mM […]; TEAB) was added to each sample. Samples were shaken in a Thermo mixer for 10 minutes at room temperature and centrifuged at 10,000 g for 5 min. Each sample was transferred from a 0.5 mL tube to a 1.5 mL LoBind centrifuge tube. Samples were reduced by adding 3.4 µL of 0.5 M dithiothreitol and incubated at 95 °C for 10 min. Samples were alkylated by the addition of 6.8 µL of 0.5 M iodoacetamide and were incubated at room temperature for 30 min in the dark. Samples were then acidified by the addition of 8.52 µL of 12% phosphoric acid, and 562 µL of SDS protein binding buffer (90% methanol, 100 mM TEAB, pH 7.51). Samples were transferred 165 µL at a time to S-trap micro columns (Protifi, Farmingdale, NY) and inserted into 1.5 mL of polypropylene tubes. Samples were centrifuged at 4,000 g for 3 min between each addition of the sample. S-trap columns were washed 6 times using 150 µL of 90% methanol containing 100 mM of TEAB followed by centrifugation at 4,000g for 3 min between each wash step. S-trap columns containing the bound sample proteins were transferred to 1.5 mL LoBind centrifuge tubes and 40 µL of 80 ng/µL sequencing grade modified trypsin (Pierce TM Trypsin Protease MS-Grade, XG348166) in 50 mM TEAB was added. S-trap columns were loosely capped, and digestion was performed at 37°C overnight in a humidified chamber.
# (§3) After completion of digestion, peptides were eluted by sequential addition of 40 µL of TEAB, 40 µL of 0.2% aqueous formic acid, and 40 µl of 50% acetonitrile, 0.2% formic acid, with centrifugation at 4,000 g for 4 min between each addition of elution buffer. The elution fractions were combined and then dried by vacuum centrifugation. Samples were reconstituted by adding 20 µL of 5% formic acid, shaking at 37 °C, and spinning at 15,000 g for 5 min. The supernatant of each sample was transferred to an auto-sample vial.
# (§4) Data analysis. Mass spectrometry data from all samples were processed using COMET/PAWS against Uniprot_Human_database. Comet (v. 2016.01, rev. 3)^8 was used to search MS2 Spectra against a January 2023 version of canonical FASTA protein database containing human uniprot sequences, and concatenated sequence-reversed entries to estimate error thresholds and 179 common contaminant sequences and their reversed forms. The database processing was performed using python scripts available at https://github.com/pwilmart/fasta_utilities.git and Comet results were processed using the PAW pipeline2 from https://github.com/pwilmart/PAW_pipeline.git.
# human plasma proteins [2] = target: T2, human plasma proteins (Homo sapiens, UniProt P02654)
# T2 construct: incubated with 50% pooled human plasma at 37 °C for 2 h; from tissue; host or cells: pooled human plasma (50%)
# T2 sequence (P02654 27-83): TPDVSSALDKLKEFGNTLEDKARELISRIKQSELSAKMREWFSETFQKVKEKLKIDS
# Description: as §1, §2, §3, §4
# human plasma proteins [3] = target: T3, human plasma proteins (Homo sapiens, UniProt P04114)
# T3 construct: incubated with 50% pooled human plasma at 37 °C for 2 h; from tissue; host or cells: pooled human plasma (50%)
# Description: as §1, §2, §3, §4
# human plasma proteins [4] = target: T4, human plasma proteins (Homo sapiens, UniProt P02768); conditions: for Total Counts, Albumin: pull‐down with biotinylated SA-E
# T4 construct: incubated with 50% pooled human plasma at 37 °C for 2 h; from tissue; host or cells: pooled human plasma (50%)
# T4 sequence (P02768 25-609): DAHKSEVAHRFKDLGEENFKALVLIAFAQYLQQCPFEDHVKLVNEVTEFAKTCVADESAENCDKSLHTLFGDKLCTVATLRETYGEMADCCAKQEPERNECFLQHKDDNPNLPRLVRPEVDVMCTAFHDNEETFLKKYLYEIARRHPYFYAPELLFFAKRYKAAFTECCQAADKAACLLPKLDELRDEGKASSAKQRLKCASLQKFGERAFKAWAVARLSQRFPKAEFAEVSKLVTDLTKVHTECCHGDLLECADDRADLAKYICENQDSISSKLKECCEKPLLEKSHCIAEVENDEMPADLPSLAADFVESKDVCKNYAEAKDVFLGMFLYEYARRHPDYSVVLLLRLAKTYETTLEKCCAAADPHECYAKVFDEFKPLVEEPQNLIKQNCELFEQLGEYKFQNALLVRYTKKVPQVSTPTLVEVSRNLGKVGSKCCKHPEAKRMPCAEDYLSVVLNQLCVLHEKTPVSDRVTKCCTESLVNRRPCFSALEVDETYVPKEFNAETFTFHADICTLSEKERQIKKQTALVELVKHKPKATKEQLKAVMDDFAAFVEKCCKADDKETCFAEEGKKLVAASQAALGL
# Description: as §1, §2, §3, §4
# human plasma proteins [5] = target: T5, human plasma proteins (Homo sapiens, UniProt P02652)
# T5 construct: incubated with 50% pooled human plasma at 37 °C for 2 h; from tissue; host or cells: pooled human plasma (50%)
# T5 sequence (P02652 19-100): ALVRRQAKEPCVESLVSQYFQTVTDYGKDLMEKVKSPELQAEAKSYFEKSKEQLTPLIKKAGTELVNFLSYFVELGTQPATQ
# Description: as §1, §2, §3, §4
# human plasma proteins [6] = target: T6, human plasma proteins (Homo sapiens, UniProt P02656)
# T6 construct: incubated with 50% pooled human plasma at 37 °C for 2 h; from tissue; host or cells: pooled human plasma (50%)
# T6 sequence (P02656 21-99): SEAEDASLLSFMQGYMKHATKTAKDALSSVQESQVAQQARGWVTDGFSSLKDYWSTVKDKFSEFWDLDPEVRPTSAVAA
# Description: as §1, §2, §3, §4
# human plasma proteins [7] = target: T7, human plasma proteins (Homo sapiens, UniProt O14791)
# T7 construct: incubated with 50% pooled human plasma at 37 °C for 2 h; from tissue; host or cells: pooled human plasma (50%)
# T7 sequence (O14791 28-398): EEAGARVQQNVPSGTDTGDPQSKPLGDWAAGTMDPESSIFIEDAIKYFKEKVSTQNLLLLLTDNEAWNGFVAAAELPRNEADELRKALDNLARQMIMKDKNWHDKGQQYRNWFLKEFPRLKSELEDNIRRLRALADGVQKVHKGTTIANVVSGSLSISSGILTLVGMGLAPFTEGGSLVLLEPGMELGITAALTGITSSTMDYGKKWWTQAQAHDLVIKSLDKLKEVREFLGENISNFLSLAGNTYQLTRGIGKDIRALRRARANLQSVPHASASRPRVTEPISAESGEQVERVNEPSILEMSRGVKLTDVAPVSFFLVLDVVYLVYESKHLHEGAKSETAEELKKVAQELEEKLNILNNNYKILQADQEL
# Description: as §1, §2, §3, §4
# human plasma proteins [8] = target: T8, human plasma proteins (Homo sapiens, UniProt P08519)
# T8 construct: incubated with 50% pooled human plasma at 37 °C for 2 h; from tissue; host or cells: pooled human plasma (50%)
# T8 sequence (P08519 20-2040): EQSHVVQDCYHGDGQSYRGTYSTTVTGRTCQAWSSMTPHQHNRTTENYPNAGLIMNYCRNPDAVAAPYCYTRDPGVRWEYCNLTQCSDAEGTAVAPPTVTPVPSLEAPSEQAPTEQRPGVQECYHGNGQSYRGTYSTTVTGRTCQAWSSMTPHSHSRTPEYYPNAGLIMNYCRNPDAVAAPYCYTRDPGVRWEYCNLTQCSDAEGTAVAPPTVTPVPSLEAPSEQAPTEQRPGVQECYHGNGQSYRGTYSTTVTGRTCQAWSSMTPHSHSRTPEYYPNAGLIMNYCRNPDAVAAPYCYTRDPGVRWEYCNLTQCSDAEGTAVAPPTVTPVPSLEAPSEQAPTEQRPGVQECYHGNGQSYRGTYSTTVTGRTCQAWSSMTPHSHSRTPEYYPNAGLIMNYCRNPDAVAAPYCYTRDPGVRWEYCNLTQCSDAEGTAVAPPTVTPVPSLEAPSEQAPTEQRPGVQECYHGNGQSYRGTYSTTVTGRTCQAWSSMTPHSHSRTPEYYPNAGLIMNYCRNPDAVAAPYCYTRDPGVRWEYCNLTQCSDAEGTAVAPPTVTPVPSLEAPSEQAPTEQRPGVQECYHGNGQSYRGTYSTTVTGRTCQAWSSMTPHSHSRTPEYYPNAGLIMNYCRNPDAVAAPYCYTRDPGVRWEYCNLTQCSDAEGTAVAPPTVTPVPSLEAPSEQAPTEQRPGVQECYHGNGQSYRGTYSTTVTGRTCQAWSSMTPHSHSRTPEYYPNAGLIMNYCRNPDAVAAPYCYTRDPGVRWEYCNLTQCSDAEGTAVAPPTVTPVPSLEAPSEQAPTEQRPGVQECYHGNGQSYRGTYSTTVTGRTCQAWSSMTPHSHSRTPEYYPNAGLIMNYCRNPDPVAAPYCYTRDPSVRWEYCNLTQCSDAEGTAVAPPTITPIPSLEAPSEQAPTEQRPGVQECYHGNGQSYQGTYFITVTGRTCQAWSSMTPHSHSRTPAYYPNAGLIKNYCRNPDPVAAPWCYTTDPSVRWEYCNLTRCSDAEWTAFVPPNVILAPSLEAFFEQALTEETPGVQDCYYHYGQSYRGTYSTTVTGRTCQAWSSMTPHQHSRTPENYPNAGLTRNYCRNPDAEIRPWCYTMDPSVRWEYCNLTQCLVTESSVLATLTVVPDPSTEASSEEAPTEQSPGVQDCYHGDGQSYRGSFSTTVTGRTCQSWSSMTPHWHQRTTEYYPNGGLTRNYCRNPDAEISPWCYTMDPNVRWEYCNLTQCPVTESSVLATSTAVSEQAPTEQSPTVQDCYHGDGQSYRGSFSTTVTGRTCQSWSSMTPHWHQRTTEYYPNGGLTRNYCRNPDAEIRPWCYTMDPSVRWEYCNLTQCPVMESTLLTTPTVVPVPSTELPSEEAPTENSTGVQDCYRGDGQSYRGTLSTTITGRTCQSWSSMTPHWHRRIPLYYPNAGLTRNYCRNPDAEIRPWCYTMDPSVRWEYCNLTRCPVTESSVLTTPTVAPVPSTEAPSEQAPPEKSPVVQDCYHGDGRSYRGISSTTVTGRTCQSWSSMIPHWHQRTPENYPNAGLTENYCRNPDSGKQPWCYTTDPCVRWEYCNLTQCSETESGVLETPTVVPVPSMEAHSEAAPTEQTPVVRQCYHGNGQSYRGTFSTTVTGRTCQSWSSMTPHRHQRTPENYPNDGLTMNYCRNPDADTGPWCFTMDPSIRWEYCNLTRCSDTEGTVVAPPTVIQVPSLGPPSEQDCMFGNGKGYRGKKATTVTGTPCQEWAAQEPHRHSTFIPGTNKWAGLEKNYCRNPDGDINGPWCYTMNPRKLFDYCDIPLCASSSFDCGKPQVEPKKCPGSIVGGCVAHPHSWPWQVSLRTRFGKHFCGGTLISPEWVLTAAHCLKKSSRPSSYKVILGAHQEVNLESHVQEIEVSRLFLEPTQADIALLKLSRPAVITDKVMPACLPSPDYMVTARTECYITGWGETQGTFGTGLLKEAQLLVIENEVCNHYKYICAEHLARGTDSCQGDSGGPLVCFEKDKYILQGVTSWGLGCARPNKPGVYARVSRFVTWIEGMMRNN
# Description: as §1, §2, §3, §4
# human plasma proteins [9] = target: T9, human plasma proteins (Homo sapiens, UniProt P05090)
# T9 construct: incubated with 50% pooled human plasma at 37 °C for 2 h; from tissue; host or cells: pooled human plasma (50%)
# T9 sequence (P05090 21-189): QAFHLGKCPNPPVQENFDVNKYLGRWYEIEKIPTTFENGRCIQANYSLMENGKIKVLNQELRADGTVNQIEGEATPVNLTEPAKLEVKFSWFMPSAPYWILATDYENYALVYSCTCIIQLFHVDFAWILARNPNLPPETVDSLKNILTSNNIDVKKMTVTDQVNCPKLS
# Description: as §1, §2, §3, §4
smiles,measurement,setting,value
CCCCCCCCCCCCCCCC(=O)NCC(=O)NCC(=O)NCC(=O)N[C@@H](Cc1c[nH]cn1)C(=O)N[C@@H](C)C(=O)N[C@@H](C)C(=O)N[C@@H](CC(N)=O)C(=O)NCC(=O)N[C@@H](CCC(=O)O)C(=O)N[C@@H](CCC(=O)O)C(=O)N[C@@H](CS)C(=O)N[C@@H](CCC(=O)O)C(=O)O [SA‐E] (Palmitoyl-GGGHAANGEECE-OH),"Percentage, Apolipoprotein E",human plasma proteins [1]; replicate 1,1.8%
same,"Total Counts, Apolipoprotein E",human plasma proteins [1]; replicate 1,66
same,"Percentage, Apolipoprotein E",human plasma proteins [1]; replicate 2,2.1%
same,"Total Counts, Apolipoprotein E",human plasma proteins [1]; replicate 2,59
same,"Percentage, Apolipoprotein C-I",human plasma proteins [2]; replicate 1,0.2%
same,"Total Counts, Apolipoprotein C-I",human plasma proteins [2]; replicate 1,6
same,"Percentage, Apolipoprotein C-I",human plasma proteins [2]; replicate 2,0.3%
same,"Total Counts, Apolipoprotein C-I",human plasma proteins [2]; replicate 2,9
same,"Percentage, Apolipoprotein B-100",human plasma proteins [3]; replicate 1,4.7%
same,"Total Counts, Apolipoprotein B-100",human plasma proteins [3]; replicate 1,166
same,"Percentage, Apolipoprotein B-100",human plasma proteins [3]; replicate 2,6.0%
same,"Total Counts, Apolipoprotein B-100",human plasma proteins [3]; replicate 2,170
same,"Total Counts, Albumin",human plasma proteins [4]; replicate 1,1215
same,"Total Counts, Albumin",human plasma proteins [4]; replicate 2,923
same,"Percentage, Albumin",human plasma proteins [4]; replicate 1,34.0%
same,"Percentage, Albumin",human plasma proteins [4]; replicate 2,32.5%
same,"Percentage, Apolipoprotein A-II",human plasma proteins [5]; replicate 1,0.2%
same,"Total Counts, Apolipoprotein A-II",human plasma proteins [5]; replicate 1,6
same,"Percentage, Apolipoprotein A-II",human plasma proteins [5]; replicate 2,0.2%
same,"Total Counts, Apolipoprotein A-II",human plasma proteins [5]; replicate 2,6
same,"Percentage, Apolipoprotein C-III",human plasma proteins [6]; replicate 1,0.1%
same,"Total Counts, Apolipoprotein C-III",human plasma proteins [6]; replicate 1,4
same,"Percentage, Apolipoprotein C-III",human plasma proteins [6]; replicate 2,0.2%
same,"Total Counts, Apolipoprotein C-III",human plasma proteins [6]; replicate 2,5
same,"Percentage, Apolipoprotein L1",human plasma proteins [7]; replicate 1,0.2%
same,"Total Counts, Apolipoprotein L1",human plasma proteins [7]; replicate 1,7
same,"Percentage, Apolipoprotein L1",human plasma proteins [7]; replicate 2,0.2%
same,"Total Counts, Apolipoprotein L1",human plasma proteins [7]; replicate 2,7
same,"Percentage, Apolipoprotein(a)",human plasma proteins [8]; replicate 1,0.1%
same,"Total Counts, Apolipoprotein(a)",human plasma proteins [8]; replicate 1,4
same,"Percentage, Apolipoprotein(a)",human plasma proteins [8]; replicate 2,0.1%
same,"Total Counts, Apolipoprotein(a)",human plasma proteins [8]; replicate 2,3
same,"Percentage, Apolipoprotein D",human plasma proteins [9]; replicate 1,0.6%
same,"Total Counts, Apolipoprotein D",human plasma proteins [9]; replicate 1,22
same,"Percentage, Apolipoprotein D",human plasma proteins [9]; replicate 2,0.8%
same,"Total Counts, Apolipoprotein D",human plasma proteins [9]; replicate 2,22
